Source: patent publication US20260207623A1, “USE OF ESTETROL IN HEPATICALLY IMPAIRED PATIENTS” (ESTETRA SRL, priority 2022, published 2026)

Key:
post-menopausal women [1] = assay: Example 2: number of patients with endometrial biopsies; assay type: in vivo, human
Procedure: If during the course of the trial, a double layer endometrial thickness≥15 mm was detected on TVUS and/or abnormal uterine bleeding (in the judgement of the gynecologist in light of the estrogen therapy) was reported by a non-hysterectomied person, they underwent an endometrial biopsy and was treated with progestin (10 mg dydrogesterone) QD until end of Week 11 in a sequential way (i.e., a 14 day progestin treatment period followed by a 14 day progestin treatment pause) in addition to the E4/placebo treatment. […] If an abnormal uterine bleeding occurred again after a first normal endometrial biopsy, a thorough gynaecological examination and a TVUS were performed. If necessary in the judgment of the gynecologist, a second endometrial biopsy was performed.
1. Number of Patients with Biopsies

post-menopausal women [2] = assay: Example 2 dose-finding study: weekly severity of moderate to severe VMS; assay type: in vivo, human; conditions: for LS adjusted mean change from baseline in weekly severity of moderate to severe VMS: week 12, ANCOVA
Source text: A severity scoring system to define the different severity categories of VMS is commonly used in the technical field: • a score of mild (1) for a sensation of heat without sweating; • a score of moderate (2) for a sensation of heat with sweating/the subject is able to continue activity; and • a score of severe (3) for a sensation of heat with sweating/which causes cessation of activity.
In addition, a severity score of zero is attributed to the patients who have experienced a 100% VMS relief during a given week. From these score records, the VMS severity at baseline is typically calculated by taking into account only moderate and severe VMS, such that the total number of moderate VMS during the 7 days of the baseline week is multiplied by 2 and added to the total number of severe VMS during the 7 days of the baseline week multiplied by 3. This total is then divided by the total number of moderate and severe VMS during the baseline week.
The severity at weeks 4 and 12 is calculated using the following formula for each of these weeks: • the number of mild VMS during 7 days multiplied by 1; • the number of moderate VMS during 7 days multiplied by 2; • the number of severe VMS during 7 days multiplied by 3; and adding the 3 resulting numbers together before dividing this total by the total number of mild, moderate and severe VMS during the 7 days of the week.
All treatments (Estetrol, hereinafter E4 as monohydrate, [2.5 mg, 5 mg, 10 mg, 15 mg] capsule) were administered once daily (QD) per os for at least 12 consecutive weeks until the last biological assessments (Day 91 maximum) had been performed.
In order to better analyse the data recorded in this study, treatment groups have been compared using an ANCOVA (analysis of covariance) with respect to the change in severity of moderate to severe VMS from baseline to mild, moderate and severe VMS at week 4 and week 12 for each active treatment versus placebo. For women who experienced 100% VMS relief at week 4 and/or week 12, a value of zero was attributed. The ANCOVA model includes treatment (“trt1”) as a fixed effect and baseline (“base”) as a covariate.

## C[C@]12CC[C@@H]3c4ccc(O)cc4CC[C@H]3[C@@H]1[C@@H](O)[C@@H](O)[C@@H]2O [E4 monohydrate, estetrol monohydrate]
post-menopausal women [1]; 2.5 mg daily
  Number of patients with biopsies: 4
post-menopausal women [1]; 5 mg daily
  Number of patients with biopsies: 5
post-menopausal women [1]; 10 mg daily
  Number of patients with biopsies: 11
post-menopausal women [1]; 15 mg daily
  Number of patients with biopsies: 9
post-menopausal women [1]; 15 mg per day group compared with 10 mg per day group
  requirements for biopsies: less requirements for biopsies
post-menopausal women [2]; 2.5 mg QD, week 0
  Mean change from baseline in weekly severity of moderate to severe VMS: 0
  Mean relative change (% from baseline) in weekly severity of moderate to severe VMS: 0%
post-menopausal women [2]; 2.5 mg QD, week 1
  Mean relative change (% from baseline) in weekly severity of moderate to severe VMS: −7%
post-menopausal women [2]; 2.5 mg QD, week 2
  Mean relative change (% from baseline) in weekly severity of moderate to severe VMS: −9%
post-menopausal women [2]; 2.5 mg QD, week 3
  Mean relative change (% from baseline) in weekly severity of moderate to severe VMS: −14%
post-menopausal women [2]; 2.5 mg QD, week 4
  Mean relative change (% from baseline) in weekly severity of moderate to severe VMS: −15%
post-menopausal women [2]; 2.5 mg QD, week 5
  Mean relative change (% from baseline) in weekly severity of moderate to severe VMS: −17%
post-menopausal women [2]; 2.5 mg QD, week 6
  Mean relative change (% from baseline) in weekly severity of moderate to severe VMS: −22%
post-menopausal women [2]; 2.5 mg QD, week 7
  Mean relative change (% from baseline) in weekly severity of moderate to severe VMS: −20%
post-menopausal women [2]; 2.5 mg QD, week 8
  Mean relative change (% from baseline) in weekly severity of moderate to severe VMS: −24%
post-menopausal women [2]; 2.5 mg QD, week 9
  Mean relative change (% from baseline) in weekly severity of moderate to severe VMS: −24%
post-menopausal women [2]; 2.5 mg QD, week 10
  Mean relative change (% from baseline) in weekly severity of moderate to severe VMS: −26%
post-menopausal women [2]; 2.5 mg QD, week 11
  Mean relative change (% from baseline) in weekly severity of moderate to severe VMS: −25%
post-menopausal women [2]; 2.5 mg QD, week 12
  Mean relative change (% from baseline) in weekly severity of moderate to severe VMS: −28%
post-menopausal women [2]; 5 mg QD, week 0
  Mean change from baseline in weekly severity of moderate to severe VMS: 0
  Mean relative change (% from baseline) in weekly severity of moderate to severe VMS: 0%
post-menopausal women [2]; 5 mg QD, week 1
  Mean relative change (% from baseline) in weekly severity of moderate to severe VMS: −4%
post-menopausal women [2]; 5 mg QD, week 2
  Mean relative change (% from baseline) in weekly severity of moderate to severe VMS: −5%
post-menopausal women [2]; 5 mg QD, week 3
  Mean relative change (% from baseline) in weekly severity of moderate to severe VMS: −7%
post-menopausal women [2]; 5 mg QD, week 4
  Mean relative change (% from baseline) in weekly severity of moderate to severe VMS: −10%
post-menopausal women [2]; 5 mg QD, week 5
  Mean relative change (% from baseline) in weekly severity of moderate to severe VMS: −7%
post-menopausal women [2]; 5 mg QD, week 6
  Mean relative change (% from baseline) in weekly severity of moderate to severe VMS: −14%
post-menopausal women [2]; 5 mg QD, week 7
  Mean relative change (% from baseline) in weekly severity of moderate to severe VMS: −12%
post-menopausal women [2]; 5 mg QD, week 8
  Mean relative change (% from baseline) in weekly severity of moderate to severe VMS: −14%
post-menopausal women [2]; 5 mg QD, week 9
  Mean relative change (% from baseline) in weekly severity of moderate to severe VMS: −14%
post-menopausal women [2]; 5 mg QD, week 10
  Mean relative change (% from baseline) in weekly severity of moderate to severe VMS: −15%
post-menopausal women [2]; 5 mg QD, week 11
  Mean relative change (% from baseline) in weekly severity of moderate to severe VMS: −18%
post-menopausal women [2]; 5 mg QD, week 12
  Mean relative change (% from baseline) in weekly severity of moderate to severe VMS: −17%
post-menopausal women [2]; 10 mg QD, week 0
  Mean change from baseline in weekly severity of moderate to severe VMS: 0
  Mean relative change (% from baseline) in weekly severity of moderate to severe VMS: 0%
post-menopausal women [2]; 10 mg QD, week 1
  Mean relative change (% from baseline) in weekly severity of moderate to severe VMS: −8%
post-menopausal women [2]; 10 mg QD, week 2
  Mean relative change (% from baseline) in weekly severity of moderate to severe VMS: −13%
post-menopausal women [2]; 10 mg QD, week 3
  Mean relative change (% from baseline) in weekly severity of moderate to severe VMS: −17%
post-menopausal women [2]; 10 mg QD, week 5
  Mean relative change (% from baseline) in weekly severity of moderate to severe VMS: −21%
post-menopausal women [2]; 10 mg QD, week 6
  Mean relative change (% from baseline) in weekly severity of moderate to severe VMS: −26%
post-menopausal women [2]; 10 mg QD, week 7
  Mean relative change (% from baseline) in weekly severity of moderate to severe VMS: −27%
post-menopausal women [2]; 10 mg QD, week 8
  Mean relative change (% from baseline) in weekly severity of moderate to severe VMS: −28%
post-menopausal women [2]; 10 mg QD, week 9
  Mean relative change (% from baseline) in weekly severity of moderate to severe VMS: −28%
post-menopausal women [2]; 10 mg QD, week 10
  Mean relative change (% from baseline) in weekly severity of moderate to severe VMS: −29%
post-menopausal women [2]; 10 mg QD, week 11
  Mean relative change (% from baseline) in weekly severity of moderate to severe VMS: −25%
post-menopausal women [2]; 10 mg QD, week 12
  Mean relative change (% from baseline) in weekly severity of moderate to severe VMS: −28%
post-menopausal women [2]; 10 mg QD
  LS adjusted mean change from baseline in weekly severity of moderate to severe VMS: −0.6934
post-menopausal women [2]; 15 mg QD, week 0
  Mean change from baseline in weekly severity of moderate to severe VMS: 0
  Mean relative change (% from baseline) in weekly severity of moderate to severe VMS: 0%
post-menopausal women [2]; 15 mg QD, week 1
  Mean relative change (% from baseline) in weekly severity of moderate to severe VMS: −3%
post-menopausal women [2]; 15 mg QD, week 2
  Mean relative change (% from baseline) in weekly severity of moderate to severe VMS: −12%
post-menopausal women [2]; 15 mg QD, week 3
  Mean relative change (% from baseline) in weekly severity of moderate to severe VMS: −20%
post-menopausal women [2]; 15 mg QD, week 4
  Mean relative change (% from baseline) in weekly severity of moderate to severe VMS: −24%
post-menopausal women [2]; 15 mg QD, week 5
  Mean relative change (% from baseline) in weekly severity of moderate to severe VMS: −31%
post-menopausal women [2]; 15 mg QD, week 6
  Mean relative change (% from baseline) in weekly severity of moderate to severe VMS: −30%
post-menopausal women [2]; 15 mg QD, week 7
  Mean relative change (% from baseline) in weekly severity of moderate to severe VMS: −34%
post-menopausal women [2]; 15 mg QD, week 8
  Mean relative change (% from baseline) in weekly severity of moderate to severe VMS: −37%
post-menopausal women [2]; 15 mg QD, week 9
  Mean relative change (% from baseline) in weekly severity of moderate to severe VMS: −38%
post-menopausal women [2]; 15 mg QD, week 10
  Mean relative change (% from baseline) in weekly severity of moderate to severe VMS: −40%
post-menopausal women [2]; 15 mg QD, week 11
  Mean relative change (% from baseline) in weekly severity of moderate to severe VMS: −42%
post-menopausal women [2]; 15 mg QD, week 12
  Mean relative change (% from baseline) in weekly severity of moderate to severe VMS: −44%
post-menopausal women [2]; 15 mg QD
  LS adjusted mean change from baseline in weekly severity of moderate to severe VMS: −1.042
